Here are results for 18 molecules from patent US20260108600A1, “METHODS AND COMPOSITIONS RELATING TO IMPROVED IONIC LIQUID ADJUVANTS” (PRESIDENT AND FELLOWS OF HARVARD COLLEGE, priority 2022, published 2026).

For data set [1] the following is noted: anion; cited from earlier work.
The conditions of data set [2]: 10% ChoSorb injections. Here is the method:
Blood was drawn 4 and 24 hours after the initial dose, and the levels of IL6 and MCP-1 measured (FIGS. 11A-11D). The levels of Tetramer cells were measured at Day 21 and Day 35 (FIGS. 12A-12D). […] The antibody response was measured (FIGS. 13A-13B).

The target in another data set is T1, OVA (Gallus gallus, UniProt P01012).
T1 sequence (P01012 1-386): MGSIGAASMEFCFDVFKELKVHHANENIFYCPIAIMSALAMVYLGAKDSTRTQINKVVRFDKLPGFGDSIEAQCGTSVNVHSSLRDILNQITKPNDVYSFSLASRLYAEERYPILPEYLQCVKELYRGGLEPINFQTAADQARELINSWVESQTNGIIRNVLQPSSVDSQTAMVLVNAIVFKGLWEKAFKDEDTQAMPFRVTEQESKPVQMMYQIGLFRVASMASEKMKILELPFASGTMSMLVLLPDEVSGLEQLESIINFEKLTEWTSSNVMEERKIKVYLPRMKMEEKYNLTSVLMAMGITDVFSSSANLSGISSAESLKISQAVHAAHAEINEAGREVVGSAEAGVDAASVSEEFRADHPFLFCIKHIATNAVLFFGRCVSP
In words: Stability of OVA combined with IL adjuvants (dialysis/SEC, circular dichroism, SDS page). The data set is classed as physicochemical. The text has this: Anions were varied based on hydrophobicity (FIG. 8). […] ILs were screened for: • a. Stability of OVA. […] In vitro immune cell maturation and activation.
Role of the payload. […] Simple dialysis was replaced by SEC to remove OVA from ChoShorb formulations.
(In general: CD spectra are sensitive to the conformation of chiral molecules.)

The subject of the next data set is Balb/c mice. How it is done: Balb/c mice received one immunization with 10% IL (w/v) and ovalbumin as a model antigen. The antibody and humoral response was then measured.
(§1) Cytokine responses were measured 4 hours after injection.
Antibody responses were measured 14 days after injection.

The next data set concerns LPO expression. The data set is described as follows: LPO expression with or without deferoxamine (ferroptosis indication). The data set is classed as cell-based.
For the next data set, the system named is Balb/c and C57BL/6 mice. As to conditions: after priming and booster shot.
For the next data set, the system named is primary dendritic cells. The conditions noted are these: IL at varying concentrations, with or without OVA. Here is the method:
(§2) The impact of differential payloads impacting the ChoSorb response was investigated in vitro. The experiment was done with IL alone and IL+OVA at each concentration to understand how payload (OVA) impacts the cell death pathway since payload may impact the early cell death pathway. Cells were treated with IL at varying concentrations and with or without OVA, then stained with Annexin V and PI at 24 hours (FIGS. 28A-28B).

For the next data set, the system named is mytotubes (C2C12 cells). The conditions noted are these: IL at varying concentrations, with or without OVA. Here is the method: as §2
For data set [3] the following is noted: lower doses, comparing across IL concentration.
In a further data set the test system is C57BL/6 mice. Here is the method: C57BL/6 mice received two immunizations with 10% IL (w/v) and ovalbumin as a model antigen, at day 0 and day 14.
as §1
Antibody responses were measured 14 and 28 days after injection.
T cell responses were measured 7, 14, 21, or 28 days after injection.

Where [4] appears, read: 4 hours after injection, 10% IL (w/v) with ovalbumin.

Structures are written as SMILES. Entries after “also recorded” stand apart in the source; their conditions may differ. Where two headings read alike, the source gives them in different places.

Experimental for Balb/c and C57BL/6 mice: In vivo vaccination of OVA with IL adjuvants in Balb/c and C57BL/6 mice. Antigen-specific antibodies and CD8+ T cell responses were evaluated after priming and booster shot.

Usually LogP stands for a log measure of how a compound divides between an organic and an aqueous phase. As to `CC/C=C\C=C\C(=O)O` [2,4-Heptadienoic acid, (2E,4Z)-], the LogP in [1] was 1.8.
As for `C/C=C\CC/C=C\CCCCCCCC(=O)O` [(9Z,13Z)-pentadeca-9,13-dienoate], the LogP in data set [1] was 5.5.
For the molecule `C/C=C/C/C=C/C(=O)O` [(2E,5E)-2,5-Heptadienoic acid], in data set [1], the LogP was 1.6.
On to `CC=CCCC=CCC(=O)O` [Nona-3,7-dienoate], for which the LogP in [1] was 2.6.
Turning to `CCC/C=C\CC/C=C\CCCCCC(=O)O` [(7Z,11Z)-pentadeca-7,11-dienoate], the LogP in data set [1] is given as 5.4.
Turning to `CCC=CC=CCC(=O)O` [Octa-3,5-dienoic acid], the LogP in data set [1] is 1.8.
Turning to `C=CCCC/C=C/C(=O)O` [2E,7-Octadienoic acid], the LogP in [1] is on record as 2.2.
With `C/C=C/CC/C=C/C(=O)O` [(2E,6E)-2,6-Octadienoic acid], in [1], the LogP was 1.8.
In the case of `C=CC=CCCCC(=O)O` [5,7-Octadienoic acid], the LogP in data set [1] is given as 1.8.
Take `CC(C)=C(C)/C=C/C(=O)O` [(2E)-4,5-dimethyl-2,4-hexadienoic acid]: the LogP in [1] is 2.5.
As to `CC=C(C)C=C(C)C(=O)O` [2,4-Dimethyl-2,4-hexadienoic acid], the LogP in data set [1] is 2.3.
As for `C/C=C/C=C/C(=O)O` [Sorbic Acid], in data set [1], the LogP was 1.43.
Turning to `CCCCCCCCC=CCCCCCC=CCCC(=O)O` [11,4-Eicosadienoic Acid], the LogP in data set [1] is on record as 7.9.
As to `CCC/C=C/C=C\C(=O)O` [(2Z,4E)-Octa-2,4-dienoic acid], in data set [1], the LogP is 2.3.
Turning to `C/C=C/C=C/C(=O)[O-].C[N+](C)(C)CCO` [ChoSorb, choline:sorbic acid], the “chemokine and cytokine levels in the serum” value (24 hour mark) is recorded as “significantly higher than saline”; the “chemokine and cytokine levels in the serum” value (48 hour mark) is reported as “no significant difference from saline”. Also, under “among infiltrating cell types”, the “CD4+ T cells” value is “significant increase”. For the same molecule, the “CD45+ cell infiltration into the muscle” value (compared to saline) is listed as “more significant rate”. Further, the inflammatory monocytes entry is “increase” (draining lymph node) and “increased significantly” (injection site). Where the note is “draining lymph node”, the “mature resident cDC1 dendritic cells” value was “increase”. The Neutrophils result (draining lymph node (dLN) after IL injection) is “spiked”. The Monocytes result (injection site) is recorded as “increased significantly”. For the same molecule, the IL-6 result (serum) is reported as “upregulated”. Besides, under “serum”, the MCP-1 result is “upregulated”. For the same molecule, the “muscle tightness after injection” value in data set [2] is on record as “cause muscle tightness over time”. For the same molecule, at OVA, the “antigen (OVA) stability in IL formulation” value is “preserve antigen stability; also recorded: stable”. Moreover, the “binding of OVA by IL” value at OVA (simple dialysis replaced by SEC to remove OVA) is “bound strongly”. The IL-6 concentrations result in the data set on Balb/c mice (setting [4]) and with C57BL/6 mice (setting [4]) was “significantly higher” throughout. The “Total IgG antibody titers” value with Balb/c mice (Day 14), in the data set on C57BL/6 mice (Day 14) and in the data set with C57BL/6 mice (Day 28) was “significantly increased” throughout. Besides, the LPO expression result was “induces LPO expression” with LPO expression (early time points) and “not when treated with deferoxamine (DFO)” in the data set with LPO expression (treated with deferoxamine (DFO), an iron chelator). The “antigen-specific immune response (T-cell and antibody)” value in the data set with Balb/c and C57BL/6 mice is “create an antigen-specific immune response in both T-cell and antibody responses”. For the same molecule, the “apoptosis (Annexin V and PI)” value in the data set with primary dendritic cells and in the data set with mytotubes (C2C12 cells) was “apoptosis occurs after 24 hours” each time. Besides, the “tetramer cell levels, separate vs combo delivery” value in data set [3] was “outperformed combo doses”. The “CD4+ memory T cells” value in the data set on C57BL/6 mice (Day 21) is reported as “significant increase”. For the same molecule, the “Th1/Th2 antibody response (IgG2c, IgG1)” value with C57BL/6 mice (Day 28) is “balanced immune response”. Also, the “level of antigen-specific T cells (OVA-tetramer staining of CD8+ T cells)” value with C57BL/6 mice (especially after a booster vaccination) is on record as “significantly increased”.
As to `C=CCC/C=C/CC(=O)O` [(3E)-3,7-octadienoic acid], the LogP in data set [1] was 1.8.
Turning to `C=CC=CCCC(=O)O` [4,6-Heptadienoic acid], in data set [1], the LogP is recorded as 1.5.
Consider `C=CCC/C=C/C(=O)O` [(2E)-hepta-2,6-dienoic acid], for which the LogP in data set [1] was 1.6.
